Test results reported in PubChem BioAssay AID1963849 (Molecular Pharmacology Branch, DTP, NCI, 2024).
pIC50: −log10 of the molar value. Where “and” joins values, the source holds several entries; their conditions need not be identical. Equal values may be shown once.

Tested on: 299254-011-R-J1-PDC complex spheroid viability
Assay: Anticancer human tumor 299254-011-R-J1-PDC patient-derived melanoma cell line growth inhibition [POLQ]
Conditions: for viability, T/C: stronger effect = lower value
Experimental: Multicellular complex tumor spheroid response to Polymerase (POL) inhibitors (novobiocin, ART-558, RP6685) in combination with a variety of drugs and investigational agents in selected tumor cell lines
The POL inhibitors (novobiocin, ART-558, and RP6685) were evaluated both individually and in combination with standard of care and investigational anticancer small molecules within a complex spheroid model of solid tumors. . Complex spheroids include a stromal component modeled by human endothelial cells (HUVEC) and fibroblasts modeled by human mesenchymal stem cells (MSCs). The concentration ranges selected for each drug and investigational agent were based upon clinically achievable concentrations if the clinical Cmax of the agent was known.
Compounds. The drugs and investigational agents: novobiocin (NSC847541), ART-558 (NSC835418), RP-6685 (NSC848927), peposertib (NSC802822), ceralasertib (NSC780249), elimusertib (NSC800525), camonsertib (NSC841442), AZD-1390 (NSC803789), olaparib (NSC753686), talazoparib (NSC767125), rucaparib (NSC756644), sotorasib (NSC818433), MRTX-1133 (NSC836407), SN-38 (NSC673596), topotecan (NSC609699), epotoside (NSC141540), doxorubicin (NSC123127), gemcitabine (NSC613327), 5-fluorouracil (NSC19893), paclitaxel (NSC125973), vemurafenib (NSC761431), MSA-2 (NSC828583), SN-011 (NSC837082), adavosertib (NSC754352), prexasertib (NSC758257), carboplatin (NSC241240) and oxaliplatin (NSC266046), were obtained from the National Cancer Institute (NCI) Developmental Therapeutics Program Chemical Repository (21). The FDA-approved anticancer drug set is available from the Developmental Therapeutics Program at https://dtp.cancer.gov/organization/dscb/obtaining/. […] The stock solutions were prepared in dimethyl sulfoxide (DMSO, Sigma-Aldrich, St. Louis, MO, cat. D2650), except for the platinum compounds which were prepared in saline (Quality Biological, Gaithersburg, MD, cat. 114-055-101), at 800-fold the tested concentration and stored at -70 degrees C prior to their use. All drugs and investigational agents were tested over a range starting from a high concentration at or near the clinical Cmax and decreasing in half-log increments. If the clinical Cmax for an agent had not been determined, the highest concentration tested was 10 microM, except for SN-38, which was tested at a high concentration of 1 microM.
Cell Culture. All cells were maintained in an incubator at 37 degrees C and 5% CO2 with 95% humidity. The PDC lines were cultured according to standard operating procedures established by the NCI PDMR (https://pdmr.cancer.gov). Table 3 of the manuscript, lists the cell lines along with the number of the three cell types plated to form the mct-spheroids and media for tumor cell growth. After thawing, all PDC lines, except 997537-175-T-J1-PDC and 415267-285-R-J2-PDC, were cultured in Matrigel-coated flasks prepared with a working solution of 1X Ham's F-12 nutrient mix, without supplementation (Thermo Fisher Scientific, cat. 11765054), 100 U/mL penicillin-streptomycin (Thermo Fisher Scientific, cat. 15140122), and 2.5% Matrigel (Corning Inc., Corning, NY, cat. 354248) for the first three passages. The two PDC lines 997537-175-T-J1-PDC and 415267-285-R-J2-PDC were cultured on uncoated flasks. The 857933-349-R-J2-PDC line was cultured in 6C/Colon 1B media containing advanced DMEM/F-12 (Thermo Fisher Scientific, cat. 12634028), 10 mM HEPES (Thermo Fisher Scientific, cat. 15630080), 1X GlutaMAX supplement (Thermo Fisher Scientific, cat. 35050061), 0.1 mg/mL primocin (InvivoGen, San Diego, CA, cat. ant-pm-2), 10% defined fetal bovine serum, heat inactivated (HyClone Laboratories Inc., Logan, UT, cat. SH30070.03HI), 50% L-WRN conditioned media (ATCC, cat. CRL-3276), 1.25 mM N-Acetyl-L-cysteine (Sigma-Aldrich, cat. A9165), 10 mM nicotinamide (Sigma-Aldrich, cat. N0636), 1X B-27 supplement (Thermo Fisher Scientific, cat. 17504044), 1X N-2 supplement (Thermo Fisher Scientific, cat. […]

[1] = compound alone, run of 11/27/2023
[2] = compound alone, run of 12/05/2023
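Further: spheroids exposed to drugs for one week before measurement.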
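Wherever viability, T/C is given: percent viability relative to DMSO vehicle control taken as 100%.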

| Structure (SMILES) | viability, T/C (compound 0.0316 µM) | viability, T/C (compound 0.1 µM) | viability, T/C (compound 0.316 µM) | viability, T/C (compound 1 µM) | viability, T/C (compound 3.16 µM) | viability, T/C (compound 10 µM) | pIC50 (curve of compound) | pIC50 [1] | viability, T/C (compound 0.00316 µM) | viability, T/C (compound 0.01 µM) | pIC50 [2] | viability, T/C (compound 0.000316 µM) | viability, T/C (compound 0.001 µM) |
| --- | --- | --- | --- | --- | --- | --- | --- | --- | --- | --- | --- | --- | --- |
| CNCc1ccc(-c2[nH]c3cc(F)cc4c3c2CCNC4=O)cc1 | 117% and 108% and 100% | 95.8% and 94.7% and 99.7% | 113% and 105% and 97.2% | 109% and 96.3% and 92.8% | 111% and 113% and 110% | 119% and 107% and 109% | < 5.00 |  |  |  |  |  |  |
| COC1C(OC(N)=O)C(O)C(Oc2ccc3c(O)c(NC(=O)c4ccc(O)c(CC=C(C)C)c4)c(=O)oc3c2C)OC1(C)C (stereo not drawn) |  |  |  |  | 102% [middle of 13 runs] |  |  | < 5.00 |  |  |  |  |  |
| COc1cc(C2c3cc4c(cc3C(OC3OC5COC(C)OC5C(O)C3O)C3COC(=O)C23)OCO4)cc(OC)c1O (stereo not drawn) | 101% and 98.9% and 106% | 103% and 106% and 84.8% | 93.5% and 92.1% and 111% | 87.4% and 91.4% and 94.4% | 67.7% and 73.7% and 72.5% | 53.7% and 56.4% and 62.8% | < 5.00 |  |  |  |  |  |  |
| COc1cc2cc(C(=O)CCC(=O)O)sc2cc1OC | 107% and 89.4% and 110% | 94.7% and 99.2% and 93.1% | 106% and 87.4% and 93.6% | 103% and 100% and 97.2% | 113% and 103% and 108% | 103% and 104% and 101% | < 5.00 |  |  |  |  |  |  |
| COc1ccc([C@@H](O)c2cc(-c3ncnc4cc(N5CCOCC5)ccc34)c(F)cc2Cl)nn1 | 106% and 102% and 92.9% | 86.3% and 91.9% and 94.6% | 106% and 96.2% and 105% | 94% and 100% and 99% | 92.6% and 84.1% and 88.5% | 49.3% and 50% and 43.6% | 5.01 and < 5.00 and 5.07 |  |  |  |  |  |  |
| COc1cccc(OCCCN)c1-c1cc(Nc2cnc(C#N)cn2)n[nH]1 | 60.5% and 75.7% and 77.2% | 52.1% and 57.2% and 56.9% | 37.6% and 41.3% and 50.1% | 38.9% and 37.3% and 45.4% |  |  | 7.10 and 6.87 and 6.57 |  | 98.2% and 103% (2×) | 92.8% and 112% and 96% |  |  |  |
| COc1cccc2c1C(=O)c1c(O)c3c(c(O)c1C2=O)CC(O)(C(=O)CO)CC3OC1CC(N)C(O)C(C)O1 (stereo not drawn) | 83.7% and 89.6% and 90% | 80.1% and 91.1% and 93.3% | 69.1% and 73.4% and 55.2% | 59% and 60.7% and 46% | 9.86% and 15.5% and 12% | 0.74% and 1.67% and 3.35% | 5.92 and 6.21 |  |  |  |  |  |  |
| Cc1cccc(N(C)C(=O)C2C(O)CCN2c2nc(C)cc(C(F)(F)F)c2C#N)c1 (stereo not drawn) | 102% [middle of 13 runs] | 103% [middle of 13 runs] | 102% [middle of 13 runs] | 103% [middle of 13 runs] | 97.3% [middle of 13 runs] |  |  | < 5.00 |  |  | < 5.00 |  |  |
| Cn1ncnc1[C@H]1c2n[nH]c(=O)c3cc(F)cc(c23)N[C@@H]1c1ccc(F)cc1 | 128% and 92.6% and 95.2% | 101% (2×) and 99.2% |  |  |  |  | < 7.00 |  | 110% and 111% and 116% | 124% and 107% and 98.2% |  | 107% and 92.2% and 97.5% | 108% and 87.9% and 99% |
| Nc1ccc(C#CCN(C(=O)Cc2ncc(C(F)(F)F)cc2C(F)(F)F)c2ccc(F)cc2)nn1 | 102% [middle of 13 runs] | 104% [middle of 13 runs] | 102% [middle of 13 runs] | 96.5% [middle of 13 runs] | 96.5% [middle of 13 runs] | 95.6% [middle of 13 runs] |  |  |  |  | < 5.00 |  |  |
| Nc1ccn(C2OC(CO)C(O)C2(F)F)c(=O)n1 (stereo not drawn) | 73.4% and 61.2% and 61% | 37.7% and 47.8% and 35.1% | 42.1% and 40.7% and 40.9% | 40.9% and 50.7% and 30.8% | 37.9% and 48.4% and 41.9% | 41.2% and 42.5% and 33.8% | 7.15 and 7.10 and 7.28 |  |  |  |  |  |  |
| O=C(Nc1ccc(O)c(NS(=O)(=O)c2ccc(F)cc2)c1)c1ccc(-c2ccccc2)cc1 | 93.4% and 116% (2×) | 99.8% and 93% and 108% | 110% and 99.2% and 96.8% | 91.6% and 92.6% and 111% | 111% and 88.9% and 86.7% | 52% and 54.8% and 46.6% | < 5.00 and 5.04 |  |  |  |  |  |  |
| O=C(c1cc(Cc2n[nH]c(=O)c3ccccc23)ccc1F)N1CCN(C(=O)C2CC2)CC1 | 94.4% and 93.8% and 100% | 101% and 83.9% and 107% | 98.9% and 81.6% and 109% | 97.1% and 85.2% and 89.6% | 98.6% and 94.9% and 100% | 88.7% and 80.5% and 96.8% | < 5.00 |  |  |  |  |  |  |
| O=c1[nH]cc(F)c(=O)[nH]1 | 95.9% and 94% and 105% | 103% and 102% and 106% | 105% and 118% and 103% | 96.4% and 103% and 93.8% | 90.9% and 85.9% and 98.6% | 74.2% and 79.7% and 81.9% | < 5.00 |  |  |  |  |  |  |
